Experimental findings from PMC12745361, “Dysadherin/YAP axis fuels stem plasticity and immune escape in liver cancer” (Signal Transduction and Targeted Therapy, 2025) are described below.

Assay type in all cases: cell-based, human
The subject of test [1] is PLC/PRF/5 cells. As to the kind of experiment: Immunoblot of FAK/YAP signalling and pluripotency factors in dysadherin-OE PLC/PRF/5 cells. The method, then: (§1) Cells were lysed in RIPA buffer for 20 minutes on ice, and protein concentrations were measured using a bicinchoninic acid (BCA) assay kit (Thermo Fisher Scientific). The proteins were denatured with SDS (Sigma‒Aldrich) and by boiling at 95 °C for 5 minutes. Equal amounts (10 µg) were resolved by 10% SDS-PAGE and transferred to PVDF membranes (Millipore, Burlington, MA, USA). The membranes were blocked with 10% bovine serum albumin (Sigma‒Aldrich) and incubated overnight at 4 °C with the indicated primary antibodies. […] After washing, membranes were incubated with HRP-conjugated secondary antibodies, and signals were developed using SuperSignal™ West Dura Substrate (Thermo Fisher Scientific) and visualized using a Digital 8 Imaging System (ProteinSimple, San Jose, CA, USA). The antibodies used for immunoblot analyses are listed in Supplementary Table S3.

The subject of test [2] is PLC/PRF/5 cells. In words: Sphere formation and Aldefluor assays, dysadherin-OE PLC/PRF/5. Particulars: dysadherin-OE PLC/PRF/5 cells; sphere formation, Aldefluor, CSC gene expression. The procedure:
The ALDH enzymatic activity of the cells was determined by ALDEFLUOR kit (Stem Cell Technologies, Vancouver, BC, Canada). Flow cytometric detection of cells expressing ALDH was performed. Diethylaminobenzaldehyde (DEAB), a specific ALDH inhibitor, was utilized to stain negative control cells.
To examine their self-renewal ability, cells were seeded at various densities in poly-HEMA-coated plates (Sigma‒Aldrich, St. Louis, MO, USA) under non-adherent, sphere–forming condition. After incubation, spheres were counted and measured (n = 3/group). Sphere viability was assessed using the CellTiter-Blue Cell Viability Assay (Sigma-Aldrich) according to the manufacturer’s instructions. Fluorescence was measured at 560 nm excitation and 590 nm emission using the Varioskan LUX multimode reader (Thermo Fisher Scientific, Waltham, MA, USA).

In test [3] the test system is PLC/PRF/5 cells. In words: Clonogenic survival assay, dysadherin-OE PLC/PRF/5. Conditions: dysadherin-OE PLC/PRF/5 cells; 200 cells/well, 14 days, n = 3/group. The procedure:
A clonogenic assay was performed as previously described.[43],[44] Briefly, cells were seeded in 12-well plates (200 cells/well) and cultured for 14 days. Colonies >50 μm in diameter were counted after crystal violet staining (n = 3/group).

Test [4] concerns OCT4 promoter. In words: OCT4 promoter luciferase reporter assay. Conditions: dysadherin-OE PLC/PRF/5 cells, verteporfin 1.5 μmol/L, 24 h, normalized to β-galactosidase. The procedure: Luciferase activity driven by the OCT4 promoter was measured using a reporter vector (GeneCopoeia, Rockville, MD, USA). For transfection, plasmid DNA, β-galactosidase control, and Lipofectamine (Sigma-Aldrich) were mixed at 1 μg:1 μg:2 μL in 300 μL of OptiMEM (Thermo Fisher Scientific, Waltham, MA, USA) medium per well. Following transfection, cells were treated with verteporfin (1.5 μmol/L) and incubated for 24 h, after which cell lysates were prepared. Luciferase readout was performed using Renilla luciferase assay system (Promega, Madison, WI, USA) and quantified with a SpectraMax L luminometer (Molecular Devices, San Jose, CA, USA). Relative luminescence values were normalized to β-galactosidase activity.
A general note: In a reporter assay the amount or activity of a reporter protein is the signal.

In test [5] the test system is PLC/PRF/5 cells. In words: Sorafenib resistance (viability, Annexin V/PI apoptosis) in dysadherin-OE PLC/PRF/5 cells. Particulars: dysadherin-OE PLC/PRF/5 cells with sorafenib. The procedure:
The rate of cell apoptosis was quantified using apoptosis assays performed with an Annexin V-Fluorescein isothiocyanate (FITC) Apoptosis Detection Kit I. (BD Biosciences, San Jose, CA, USA). Cells were washed twice with cold PBS to yield single-cell suspensions at a concentration of 1×10⁶ cells/mL. The suspension was transferred to a tube containing 5 µL of FITC, annexin V, and propidium iodide (PI). After gentle vortexing, the mixture was incubated at room temperature for 15 min in the dark. After incubation, 400 µL of 1 x binding buffer was added to each sample prior to flow cytometry analysis. FACS analysis was performed using a BD AccuriTM flow cytometer (BD Biosciences). FACS data were analyzed using FlowJo software (TreeStar, San Carlos, CA, USA) as described in our previous report.

Test [6] deals with PLC/PRF/5 cells. As to the kind of experiment: PD-L1 immunoblot in dysadherin-OE PLC/PRF/5 cells. The method, then: as §1
A general note: In western blotting, separated proteins are transferred to a membrane and probed.

For test [7], the system named is PLC/PRF/5 cells. As to the kind of experiment: Immunosuppressive gene expression in dysadherin-OE PLC/PRF/5 cells. The procedure: Total RNA was isolated using RNAiso reagent (Takara, Shiga, Japan), and purity was confirmed by 260/280 and 260/230 ratios. cDNA templates were synthesized from 0.5 μg of total RNA using the PrimeScriptTM 1st strand cDNA Synthesis Kit (Takara) with random primers. qPCR was performed using Power SYBR Green PCR Master Mix and Step-One Real-time PCR systems (Applied Biosystems, Foster City, CA, USA). The primers used are listed in Supplementary Table S2.

Test [8] relates to Jurkat T cells co-cultured with PLC/PRF/5 cells. As to the kind of experiment: Jurkat T-cell co-culture assay (CD69 flow cytometry, IFN-γ ELISA). Conditions: Jurkat cells co-cultured with dysadherin-OE PLC/PRF/5 cells, CD3/CD28 stimulation, 24 hours. The method, then:
The rate of T-cell activation after co-culture with the HCC cells were evaluated by direct co-culture system. The assay was performed in 24-well plates. HCC cells (1x10^4) were seeded in the plates and cultured for 24 hours to allow attachment. The cells were transfected with or without YAP5SA and treated with or without verteporfin. Following 24 hours of treatment, the tumor cells were incubated for an additional 24 hours before introducing Jurkat cells (4x10^5). After 1hour of stabilization, T-cell activation was induced by adding soluble anti-CD3 (2 μg/mL, eBioscience, San Diego, CA, USA), soluble anti-CD28 (1 μg/mL, eBioscience), and anti-mouse Ig (5 μg/mL, Southern Biotech, Birmingham, AL, USA). After 24 hours of co-culture, the supernatant was collected for an IFN-γ ELISA assay, and Jurkat cells were harvested for FACS analysis to assess T-cell activation. The cells were stained with the PE-cy7 conjugated anti-CD69 antibody in FACS buffer for at least 1hour at 4 °C in the dark and analyzed on BD AccuriTM flow cytometer and data were processed using FlowJo software.
The concentration of IFN-γ in cell-free supernatants was measured using a Human IFN-γ ELISA Kit (R&D Systems, Minneapolis, MN, USA), following the manufacturer’s instructions.
Background: Flow cytometry measures light scatter and fluorescence of single cells or particles in a stream.

Turning to `CNC(=O)c1ccccc1Nc1cc(Nc2ccc(N3CCOCC3)cc2OC)ncc1C(F)(F)F` [PND-1186], in test [1], the “dysadherin-induced increase in FAK phosphorylation” value was “specifically suppressed”, the “dysadherin-induced increase in YAP activation” value was “specifically suppressed” and the “dysadherin-induced increase in pluripotency gene expression” value is “specifically suppressed”. For the same compound, the “dysadherin OE-induced suppression of LATS1/2 phosphorylation” value in test [1] (treatment with a FAK inhibitor) is “reversed”.
For the compound `COc1ccc([C@H](CC(=O)O)N2CCN(CCCc3ccc4c(n3)NCCC4)C2=O)cn1` [MK-0429], in test [1], the “dysadherin-induced increase in FAK phosphorylation” value is “specifically suppressed”, the “dysadherin-induced increase in YAP activation” value is recorded as “specifically suppressed” and the “dysadherin-induced increase in pluripotency gene expression” value is recorded as “specifically suppressed”.
As to Verteporfin, in test [1], the YAP activity entry is “decreased”. Besides, in test [1] (immunoblot), the “dysadherin OE-induced p-FAK, YAP activation and pluripotency markers” value was “reversed these effects”. The CSC features entry in test [2] is “suppressed”. Moreover, the clonogenicity entry in test [3] is “suppressed”. Moreover, the “OCT4 promoter activity increased by dysadherin OE” value in test [4] is recorded as “suppressed”. Also, the “dysadherin OE-induced resistance to sorafenib” value in test [5] is listed as “reversed”. Also, in test [6], the “upregulation of PD-L1 expression by dysadherin OE” value is “reversed”. In addition, the “expression of immunosuppressive genes” value in test [7] is reported as “markedly reduced”. Besides, the “dysadherin OE-mediated suppression of CD69 upregulation and IFN-γ release” value in test [8] is recorded as “reversed”.
